Here are results for 9 compounds from US9708314B2, “Heterocyclic amide compound” (NISSAN CHEMICAL INDUSTRIES, LTD., priority 2013, dated 2017).

What all share (assay type): in vivo
In data set [1] the test system is Beta vulgaris ssp. vulgaris. In words: Test Example 4: effect on crop by application to foliage (diluvial soil, plastic box). Conditions: for f (Beta vulgaris ssp. vulgaris) effect on crop: application to foliage, application herbicide amount 320 g/ha; for f: Application herbicide amount 320 g/ha, effect on crop. Put shortly:
(§1)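 Read-out is a 0–5 visual grade of herbicidal ratio (5: ≥90%, almost withered; 0: ≤5%) taken three weeks after treatment. Compound was applied as a diluted emulsion to stem and leaf parts of 14-day greenhouse-grown plants (25° C. to 30° C.) at rates expressed as g/ha.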

The next data set deals with Triticum aestivum. The data set is described as above. Conditions: for e (Triticum aestivum) effect on crop: application to foliage, application herbicide amount 320 g/ha; for e: Application herbicide amount 320 g/ha, effect on crop. Put shortly: as §1
Another data set relates to Zea mays. Described as above. Conditions: for b (Zea mays) effect on crop: application to foliage, application herbicide amount 320 g/ha; for b: Application herbicide amount 320 g/ha, effect on crop. The gist of the method:
as §1

The next data set concerns Glycine max. The description is as above. Conditions: for c (Glycine max) effect on crop: application to foliage, application herbicide amount 320 g/ha; for c: Application herbicide amount 320 g/ha, effect on crop. The gist of the method: as §1
Another data set concerns Brassica campestris L. Described as above. Particulars: for g (Brassica campestris L.) effect on crop: application to foliage, application herbicide amount 320 g/ha; for g: Application herbicide amount 320 g/ha, effect on crop. The gist of the method: as §1
Data set [2] deals with directly sowed Oryza sativa. Described as above. Conditions: for d (directly sowed Oryza sativa) effect on crop: application to foliage, application herbicide amount 320 g/ha; for d: Application herbicide amount 320 g/ha, effect on crop. Put shortly: as §1
A further data set deals with Monochoria vaginalis. Briefly: Test Example 2: herbicidal activity, application during weed generation in submerged conditions. Particulars: Eighteenth Table; application herbicide amount 320 g/ha. Put shortly: (§2)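 Paddy-type pot test: flooded soil, 4 cm depth, greenhouse 25–30 °C. Emulsion formulation diluted in water, applied to water surface at 1–2 leaf stage; rate expressed as g/ha. Read-out at 3 wk, 0–5 score.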

Data set [3] relates to Echinochloa oryzacola Vasing. The data set is described as above. Conditions: Eighteenth Table; application herbicide amount 320 g/ha. The gist of the method:
as §2

In a further data set the test system is Scirpus juncoides. Described as above. Particulars: Eighteenth Table; application herbicide amount 320 g/ha. The gist of the method:
as §2

With `COCCOCc1nnc2c(C(=O)Nc3nnc(C)o3)ccc(C(F)(F)F)n12` [1-019], in data set [1], the “f (Beta vulgaris ssp. vulgaris) effect on crop” value was 5 (Herbicidal ratio of 90% or more (almost completely withered)). Besides, the “e (Triticum aestivum) effect on crop” value in the data set on Triticum aestivum is 3 (Herbicidal ratio of 40% or more and less than 70%). The “b (Zea mays) effect on crop” value in the data set with Zea mays is 2 (Herbicidal ratio of 20% or more and less than 40%). The “c (Glycine max) effect on crop” value in the data set with Glycine max is 2 (Herbicidal ratio of 20% or more and less than 40%). Besides, in the data set with Brassica campestris L., the “g (Brassica campestris L.) effect on crop” value is 4 (Herbicidal ratio of 70% or more and less than 90%). Also, the “d (directly sowed Oryza sativa) effect on crop” value in data set [2] was 4 (Herbicidal ratio of 70% or more and less than 90%). For the same compound, the “C (Monochoria vaginalis) herbicidal ratio grade” value in the data set with Monochoria vaginalis is 3 (Herbicidal ratio of 40% or more and less than 70%). Also, in data set [3], the “A (Echinochloa oryzicola Vasing.) herbicidal ratio grade” value is 4 (Herbicidal ratio of 70% or more and less than 90%). For the same compound, the “B (Scirpus juncoides) herbicidal ratio grade” value in the data set with Scirpus juncoides was 3 (Herbicidal ratio of 40% or more and less than 70%).
On to `CCSc1nnc2c(C(=O)Nc3nnc(C)o3)ccc(C(F)(F)F)n12` [1-032], for which the “f (Beta vulgaris ssp. vulgaris) effect on crop” value in [1] is on record as 5 (Herbicidal ratio of 90% or more (almost completely withered)). Also, the “e (Triticum aestivum) effect on crop” value in the data set on Triticum aestivum was 1 (Herbicidal ratio of 5% or more and less than 20%). Further, the “b (Zea mays) effect on crop” value in the data set with Zea mays is recorded as 0 (Herbicidal ratio of 5% or less (almost no effect)). In addition, the “c (Glycine max) effect on crop” value in the data set on Glycine max is 0 (Herbicidal ratio of 5% or less (almost no effect)). In addition, the “g (Brassica campestris L.) effect on crop” value in the data set with Brassica campestris L. is 4 (Herbicidal ratio of 70% or more and less than 90%). Also, the “d (directly sowed Oryza sativa) effect on crop” value in data set [2] was 4 (Herbicidal ratio of 70% or more and less than 90%). Besides, the “C (Monochoria vaginalis) herbicidal ratio grade” value in the data set with Monochoria vaginalis is 3 (Herbicidal ratio of 40% or more and less than 70%). The “A (Echinochloa oryzicola Vasing.) herbicidal ratio grade” value in data set [3] was 4 (Herbicidal ratio of 70% or more and less than 90%). Moreover, the “B (Scirpus juncoides) herbicidal ratio grade” value with Scirpus juncoides is 3 (Herbicidal ratio of 40% or more and less than 70%).
As for `CC(C)c1nnc2c(C(=O)Nc3nnc(C(F)(F)F)o3)ccc(C(F)(F)F)n12` [1-100], the f in data set [1] is 3 (Herbicidal ratio of 40% or more and less than 70%). Moreover, the e in the data set on Triticum aestivum is 0 (Herbicidal ratio of 5% or less (almost no effect)). Further, the b in the data set with Zea mays was 0 (Herbicidal ratio of 5% or less (almost no effect)). In addition, the c with Glycine max was 0 (Herbicidal ratio of 5% or less (almost no effect)). Also, the g in the data set on Brassica campestris L. was 0 (Herbicidal ratio of 5% or less (almost no effect)). Also, in data set [2], the d is 1 (Herbicidal ratio of 5% or more and less than 20%). Further, the “C (Monochoria vaginalis) herbicidal ratio grade” value in the data set with Monochoria vaginalis was 4 (Herbicidal ratio of 70% or more and less than 90%). Also, the “A (Echinochloa oryzicola Vasing.) herbicidal ratio grade” value in data set [3] was 4 (Herbicidal ratio of 70% or more and less than 90%). Moreover, the “B (Scirpus juncoides) herbicidal ratio grade” value in the data set on Scirpus juncoides is 3 (Herbicidal ratio of 40% or more and less than 70%).
As to `Cc1nnc(NC(=O)c2ccc(C(F)(F)F)n3c(C(C)C)nnc23)o1` [1-004, 3-Isopropyl-N-(5-methyl-1,3,4-oxadiazol-2-yl)-5-(trifluoromethyl)-[1,2,4]triazolo[4,3-a]pyridine-8-carboxamide], the “f (Beta vulgaris ssp. vulgaris) effect on crop” value in data set [1] is 4 (Herbicidal ratio of 70% or more and less than 90%). For the same compound, in the data set on Triticum aestivum, the “e (Triticum aestivum) effect on crop” value is 2 (Herbicidal ratio of 20% or more and less than 40%). For the same compound, the “b (Zea mays) effect on crop” value with Zea mays is given as 0 (Herbicidal ratio of 5% or less (almost no effect)). Moreover, the “c (Glycine max) effect on crop” value with Glycine max is 4 (Herbicidal ratio of 70% or more and less than 90%). Besides, in the data set with Brassica campestris L., the “g (Brassica campestris L.) effect on crop” value is 3 (Herbicidal ratio of 40% or more and less than 70%). Besides, the “d (directly sowed Oryza sativa) effect on crop” value in data set [2] is 4 (Herbicidal ratio of 70% or more and less than 90%). In the data set on Monochoria vaginalis, the “C (Monochoria vaginalis) herbicidal ratio grade” value is 4 (Herbicidal ratio of 70% or more and less than 90%). Moreover, the “A (Echinochloa oryzicola Vasing.) herbicidal ratio grade” value in data set [3] is 4 (Herbicidal ratio of 70% or more and less than 90%). In addition, the “B (Scirpus juncoides) herbicidal ratio grade” value with Scirpus juncoides is 3 (Herbicidal ratio of 40% or more and less than 70%).
As to `CC(C)Sc1nnc2c(C(=O)Nc3nnco3)ccc(C(F)(F)F)n12` [1-091], in data set [1], the f is reported as 5 (Herbicidal ratio of 90% or more (almost completely withered)). Moreover, the e in the data set on Triticum aestivum was 3 (Herbicidal ratio of 40% or more and less than 70%). Further, the b in the data set with Zea mays was 0 (Herbicidal ratio of 5% or less (almost no effect)). Further, the c in the data set on Glycine max was 2 (Herbicidal ratio of 20% or more and less than 40%). For the same compound, the g in the data set on Brassica campestris L. is on record as 5 (Herbicidal ratio of 90% or more (almost completely withered)). Further, the d in data set [2] is 4 (Herbicidal ratio of 70% or more and less than 90%). Besides, the “C (Monochoria vaginalis) herbicidal ratio grade” value with Monochoria vaginalis is given as 5 (Herbicidal ratio of 90% or more (almost completely withered)). In addition, the “A (Echinochloa oryzicola Vasing.) herbicidal ratio grade” value in [3] is reported as 5 (Herbicidal ratio of 90% or more (almost completely withered)). The “B (Scirpus juncoides) herbicidal ratio grade” value in the data set with Scirpus juncoides is recorded as 5 (Herbicidal ratio of 90% or more (almost completely withered)).
Turning to `Cc1nnc(NC(=O)c2ccc(C(F)(F)F)n3c(SC(C)C)nnc23)o1` [1-033], in data set [1], the “f (Beta vulgaris ssp. vulgaris) effect on crop” value is listed as 5 (Herbicidal ratio of 90% or more (almost completely withered)). For the same compound, in the data set with Triticum aestivum, the “e (Triticum aestivum) effect on crop” value is 1 (Herbicidal ratio of 5% or more and less than 20%). Moreover, the “b (Zea mays) effect on crop” value with Zea mays was 0 (Herbicidal ratio of 5% or less (almost no effect)). Further, the “c (Glycine max) effect on crop” value with Glycine max was 2 (Herbicidal ratio of 20% or more and less than 40%). Besides, the “g (Brassica campestris L.) effect on crop” value in the data set with Brassica campestris L. is 4 (Herbicidal ratio of 70% or more and less than 90%). The “d (directly sowed Oryza sativa) effect on crop” value in [2] was 3 (Herbicidal ratio of 40% or more and less than 70%). The “C (Monochoria vaginalis) herbicidal ratio grade” value with Monochoria vaginalis is 3 (Herbicidal ratio of 40% or more and less than 70%). The “A (Echinochloa oryzicola Vasing.) herbicidal ratio grade” value in [3] is 4 (Herbicidal ratio of 70% or more and less than 90%). In addition, the “B (Scirpus juncoides) herbicidal ratio grade” value in the data set with Scirpus juncoides was 4 (Herbicidal ratio of 70% or more and less than 90%).
In the case of `Cc1nnc(NC(=O)c2ccc(C(F)(F)F)n3c(C4=NOC(C)(C)C4)nnc23)o1` [1-029], the “f (Beta vulgaris ssp. vulgaris) effect on crop” value in data set [1] is 5 (Herbicidal ratio of 90% or more (almost completely withered)). The “e (Triticum aestivum) effect on crop” value with Triticum aestivum was 1 (Herbicidal ratio of 5% or more and less than 20%). For the same compound, in the data set with Zea mays, the “b (Zea mays) effect on crop” value is 3 (Herbicidal ratio of 40% or more and less than 70%). Further, in the data set with Glycine max, the “c (Glycine max) effect on crop” value is 1 (Herbicidal ratio of 5% or more and less than 20%). In addition, in the data set with Brassica campestris L., the “g (Brassica campestris L.) effect on crop” value was 1 (Herbicidal ratio of 5% or more and less than 20%). Also, the “d (directly sowed Oryza sativa) effect on crop” value in data set [2] is 3 (Herbicidal ratio of 40% or more and less than 70%). The “C (Monochoria vaginalis) herbicidal ratio grade” value with Monochoria vaginalis is 3 (Herbicidal ratio of 40% or more and less than 70%). For the same compound, the “A (Echinochloa oryzicola Vasing.) herbicidal ratio grade” value in [3] was 3 (Herbicidal ratio of 40% or more and less than 70%). Also, the “B (Scirpus juncoides) herbicidal ratio grade” value in the data set on Scirpus juncoides is 2 (Herbicidal ratio of 20% or more and less than 40%).
Turning to `Cc1nnc(NC(=O)c2ccc(C(F)(F)F)n3c(COCC(F)(F)F)nnc23)o1` [1-020], the “f (Beta vulgaris ssp. vulgaris) effect on crop” value in data set [1] is listed as 5 (Herbicidal ratio of 90% or more (almost completely withered)). In addition, the “e (Triticum aestivum) effect on crop” value with Triticum aestivum was 1 (Herbicidal ratio of 5% or more and less than 20%). Moreover, the “b (Zea mays) effect on crop” value with Zea mays is listed as 0 (Herbicidal ratio of 5% or less (almost no effect)). The “c (Glycine max) effect on crop” value with Glycine max was 1 (Herbicidal ratio of 5% or more and less than 20%). In the data set on Brassica campestris L., the “g (Brassica campestris L.) effect on crop” value was 3 (Herbicidal ratio of 40% or more and less than 70%). For the same compound, in [2], the “d (directly sowed Oryza sativa) effect on crop” value is given as 0 (Herbicidal ratio of 5% or less (almost no effect)). In addition, the “C (Monochoria vaginalis) herbicidal ratio grade” value with Monochoria vaginalis was 2 (Herbicidal ratio of 20% or more and less than 40%). Besides, the “A (Echinochloa oryzicola Vasing.) herbicidal ratio grade” value in [3] is 2 (Herbicidal ratio of 20% or more and less than 40%). For the same compound, in the data set with Scirpus juncoides, the “B (Scirpus juncoides) herbicidal ratio grade” value is 2 (Herbicidal ratio of 20% or more and less than 40%).
On to `Cc1nnc(NC(=O)c2ccc(C(F)F)n3c(C(C)C)nnc23)o1` [1-053], for which the “f (Beta vulgaris ssp. vulgaris) effect on crop” value in [1] is 3 (Herbicidal ratio of 40% or more and less than 70%). The “e (Triticum aestivum) effect on crop” value with Triticum aestivum is on record as 0 (Herbicidal ratio of 5% or less (almost no effect)). Further, in the data set with Zea mays, the “b (Zea mays) effect on crop” value is 0 (Herbicidal ratio of 5% or less (almost no effect)). In addition, in the data set with Glycine max, the “c (Glycine max) effect on crop” value is recorded as 0 (Herbicidal ratio of 5% or less (almost no effect)). For the same compound, in the data set with Brassica campestris L., the “g (Brassica campestris L.) effect on crop” value is 1 (Herbicidal ratio of 5% or more and less than 20%). In data set [2], the “d (directly sowed Oryza sativa) effect on crop” value was 3 (Herbicidal ratio of 40% or more and less than 70%). The “C (Monochoria vaginalis) herbicidal ratio grade” value in the data set with Monochoria vaginalis is recorded as 0 (Herbicidal ratio of 5% or less (almost no effect)). Moreover, the “A (Echinochloa oryzicola Vasing.) herbicidal ratio grade” value in [3] was 1 (Herbicidal ratio of 5% or more and less than 20%). Moreover, the “B (Scirpus juncoides) herbicidal ratio grade” value in the data set on Scirpus juncoides is 2 (Herbicidal ratio of 20% or more and less than 40%).
